# Oligonucleotides are written 5' to 3', each unit as a sugar letter and its base; * is a phosphorothioate linkage, no mark a phosphodiester; rarer units and linkages stand in square brackets, end groups in braces. Plain capitals give the bases only. k = constrained ethyl (cEt); [5mC] = 5-methylcytosine; d = 2'-deoxy (DNA)
# Legend:
# AR mRNA [1] = assay: Dose-dependent antisense inhibition of human AR in HuVEC cells (electroporation, qRT-PCR RTS3559, IC50); format: cell-based; conditions: HuVEC, electroporation, approximately 16 hours
# In short: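 HuVEC cells dosed with antisense oligonucleotides by electroporation and treated approximately 16 hours. AR mRNA quantified by real-time qPCR with primer probe set RTS3559 and normalised to total RNA by RIBOGREEN; IC50 from dose-response.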
# AR mRNA [2] = assay: Antisense inhibition of human AR in HuVEC cells, single concentration (electroporation, qRT-PCR RTS3559); format: cell-based; conditions: electroporation, approximately 24 hours, relative to untreated control
# In short: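 HuVEC cells electroporated with antisense oligonucleotides at a single concentration. AR mRNA quantified by qRT-PCR using human primer-probe set RTS3559 and normalised to total RNA content by RIBOGREEN.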
# [3] = Table 19, 500 nM oligonucleotide
# [4] = Table 20, 500 nM oligonucleotide
Substance,"percent inhibition of AR, 46.9 nM (AR mRNA [1]; Table 31) [%]","percent inhibition of AR, 187.5 nM (AR mRNA [1]; Table 31) [%]","percent inhibition of AR, 750.0 nM (AR mRNA [1]; Table 31) [%]","percent inhibition of AR, 3000.0 nM (AR mRNA [1]; Table 31) [%]",IC50 (AR mRNA [1]; Table 31) [nM],% inhibition (AR mRNA [2]; [3]) [%],"percent inhibition of AR, 46.9 nM (AR mRNA [1]; Table 32) [%]","percent inhibition of AR, 187.5 nM (AR mRNA [1]; Table 32) [%]","percent inhibition of AR, 750.0 nM (AR mRNA [1]; Table 32) [%]","percent inhibition of AR, 3000.0 nM (AR mRNA [1]; Table 32) [%]",IC50 (AR mRNA [1]; Table 32) [nM],"percent inhibition of AR, 46.9 nM (AR mRNA [1]; Table 33) [%]","percent inhibition of AR, 187.5 nM (AR mRNA [1]; Table 33) [%]","percent inhibition of AR, 750.0 nM (AR mRNA [1]; Table 33) [%]","percent inhibition of AR, 3000.0 nM (AR mRNA [1]; Table 33) [%]",IC50 (AR mRNA [1]; Table 33) [nM],% inhibition (AR mRNA [2]; [4]) [%]
583799 (antisense kT*kG*k[5mC]*d[5mC]*dT*dT*d[5mC]*dG*dG*dA*dT*dA*d[5mC]*kT*kG*k[5mC]) [compound 583799],29,60,76,85,140,65,,,,,,,,,,,
583802 (antisense k[5mC]*kT*k[5mC]*dG*d[5mC]*dT*d[5mC]*dT*d[5mC]*d[5mC]*d[5mC]*dG*d[5mC]*kT*kG*k[5mC]) [compound 583802],,,,,,37,17,25,47,60,1070,,,,,,
583809 (antisense kT*kG*kT*d[5mC]*d[5mC]*dT*dT*dG*dG*dA*dG*dG*dA*kA*kG*kT) [compound 583809],13,37,68,81,360,45,,,,,,,,,,,
583818 (antisense kT*kG*kG*dT*d[5mC]*dG*dA*dA*dG*dT*dG*d[5mC]*d[5mC]*k[5mC]*k[5mC]*k[5mC]) [compound 583818],9,46,71,84,310,42,,,,,,,,,,,
583821 (k[5mC]*kA*kG*dA*dA*dA*dT*dG*dG*dT*d[5mC]*dG*dA*kA*kG*kT) [compound 583821],11,35,61,77,460,42,,,,,,,,,,,
583833 (kT*kG*kT*dT*d[5mC]*d[5mC]*d[5mC]*d[5mC]*dT*dG*dG*dA*d[5mC]*kT*k[5mC]*kA; antisense) [compound 583833],,,,,,,,,,,,26,43,70,74,260,37
583834 (kA*kG*k[5mC]*dT*dG*dT*dT*d[5mC]*d[5mC]*d[5mC]*d[5mC]*dT*dG*kG*kA*k[5mC]; antisense) [compound 583834],,,,,,,34,54,73,84,130,,,,,,52
583835 (kG*kA*kA*dG*d[5mC]*dT*dG*dT*dT*d[5mC]*d[5mC]*d[5mC]*d[5mC]*kT*kG*kG; antisense) [compound 583835],,,,,,,20,55,74,88,190,,,,,,44
583836 (k[5mC]*k[5mC]*kG*dA*dA*dG*d[5mC]*dT*dG*dT*dT*d[5mC]*d[5mC]*k[5mC]*k[5mC]*kT; antisense) [compound 583836],,,,,,,11,27,67,86,390,,,,,,37
583843 (kG*kT*kA*d[5mC]*dA*dT*dG*d[5mC]*dA*dA*dT*d[5mC]*d[5mC]*k[5mC]*k[5mC]*k[5mC]; antisense) [compound 583843],,,,,,,,,,,,22,40,67,85,300,35
583847 (kA*k[5mC]*kA*dG*d[5mC]*dG*dG*dG*dT*dG*dG*dA*dA*k[5mC]*kT*k[5mC]; antisense) [compound 583847],,,,,,,,,,,,8,30,60,84,460,34

# From USRE48461E1, “Modulation of androgen receptor expression” (Ionis Pharmaceuticals, Inc., priority 2012, dated 2021)
